Laboratory results from patent US7214714B2, “20-hydroxyeicosatetraenoic acid production inhibitors” (Taisho Pharmaceutical Co. Ltd., priority 2001, dated 2007).

How the values were obtained:
[1] = biological target: 20-HETE-Producing Enzyme derived from Human Renal Microsome; assay: Inhibitory action to 20-HETE-producing enzyme derived from human renal microsome; assay type: biochemical; settings: human renal microsome fraction, tritium-arachidonic acid substrate, NADPH, 37° C., 1.5 hours, pH 7.4; read-out: IC50 (inhibition of 20-HETE production)
Experimental: Inhibitory Action to 20-HETE-Producing Enzyme derived from Human Renal Microsome
With regard to the compounds listed in the above table, their inhibitory actions to 20-HETE production were tested.
This test was carried out in accordance with a method mentioned in J. Pharmacol. Exp. Ther., volume 268, page 474 (1994).
A solution of the test compound adjusted to 1 μM using DMSO was added to a 50 mM of 3-morpholinopropanesulfonic acid buffer (MOPS) (pH 7.4) containing 5 mM of magnesium chloride and 1 mM of sodium ethylenediaminetetraacetate (EDTA), then human renal microsome fraction (Human Cell Culture Center, Anatomic Gift Foundation), [5,6,8,9,11,12,15]tritium-arachidonic acid and NADPH were added thereto as an enzymatic source, a substrate and a coenzyme, respectively and reaction was carried out at 37° C. for 1.5 hours. Formic acid was added to the reaction solution to stop the reaction and then acetonitrile was added thereto (final concentration: 50%). Amount of 20-HETE produced thereby was measured using a high performance liquid chromatography equipped with a radioactive substance detector having an ODS column (Biosil C18; manufactured by Biorad).
Amount of 20-HETE produced when no compound was added was defined as 100% and the concentration of the compound when production of 20-HETE was inhibited to an extent of 50% upon addition of a compound (IC50 value) was calculated.

| Structure (SMILES) | IC50 [1] [nM] | melting point |
| --- | --- | --- |
| O/N=C/Nc1ccc(N2CCC3(CC2)OCCO3)cc1 [Compound 33] | 3.6 | 157 to 158.5 °C |
| O/N=C/Nc1ccc(N2CCCCCC2)c(F)c1 [Compound 22] | 2.1 | 112 to 115 °C |
| O/N=C/Nc1ccc(N2CCC(O)CC2)c(Cl)c1 [Compound 49] | 3.4 | 93 to 97 °C |
| O/N=C/Nc1ccc(N2CCCCCCC2)cc1 [Compound 27] | 10.2 | 170 to 173 °C |
| O/N=C/Nc1ccc(N2CC=CCC2)c(C(F)(F)F)c1 [Compound 19] | 18 | 136.5 to 138 °C |
| O/N=C/Nc1ccc(N2CCCCCC2)c(Cl)c1 [Compound 23] | 2.2 | 113 to 114 °C |
| O/N=C/Nc1ccc(N2CCSCC2)cc1 [Compound 1] |  | 138 to 141 °C |
| Cc1cc(N2CCN(C3CCCCC3)CC2)ccc1N/C=N/O.Cl [Compound 111] | 70.8 | 230 to 232 °C (dec.) |
| O/N=C/Nc1ccc(N2CCN(C3CCCCC3)CC2)c(C(F)(F)F)c1 [Compound 110] | 531 | 93 to 96 °C |
| CCN1CCN(c2ccc(N/C=N/O)cc2Cl)CC1 [Compound 74] | 73.2 | 207 to 209 °C |
| CCN(CC)C(=O)C1CCCN(c2ccc(N/C=N/O)cc2C(F)(F)F)C1 (stereo not drawn) [Compound 64] | 19.4 | 150 to 156 °C |
| O/N=C/Nc1ccc(N2CCN(c3ccccn3)CC2)c(Cl)c1 [Compound 131] | 3.5 | 94 to 96 °C |
| CCN1CCN(c2ccc(N/C=N/O)cc2Br)CC1 [Compound 75] | 154 | 204.5 to 206.5 °C |
| O/N=C/Nc1ccc(N2CCC(O)CC2)c(F)c1 [Compound 48] | 3.2 | 159 to 161 °C |
| CN1CCN(c2ccc(N/C=N/O)cc2Cl)CC1 [Compound 68] | 107 | 188 to 189 °C |
| CCN1CCN(c2ccc(N/C=N/O)cc2C(F)(F)F)CC1 [Compound 77] | 509 | 158 to 159 °C |

| Structure (SMILES) | IC50 [1] [nM] | melting point |
| --- | --- | --- |
| O/N=C/Nc1ccc(N2CCSCC2)c(Cl)c1 [Compound 3, N-hydroxyl-N′-(3-chloro-4-thiomorpholinophenyl)formamidine] | 3.6 | 137 to 138.5 °C |
| O/N=C/Nc1ccc(N2CCC3(CC2)OCCO3)c(Cl)c1 [Compound 35] | 5 | 174 to 176 °C |
| COCCN(CCOC)c1ccc(N/C=N/O)cc1Cl [Compound 119] |  | 95 to 96.5 °C |
| COCCN(CCOC)c1ccc(N/C=N/O)cc1 [Compound 133] | 340 | 97 to 98 °C |
| CCN1CCN(c2ccc(N/C=N/O)cc2)CC1 [Compound 72] | 39.2 | 220 to 222 °C |
| OCCC1CCN(c2ccc(N/C=N/O)cc2)CC1 [Compound 54] | 34.7 | 186 to 189 °C |
| CCN1CCN(c2ccc(N/C=N/O)cc2F)CC1 [Compound 73] | 37.2 | 197 to 200 °C |
| CC(=O)N1CCN(c2ccc(N/C=N/O)cn2)CC1 [Compound 129] | 8.3 | 191 to 192 °C (dec.) |
| O/N=C/Nc1ccc(N2CCOCC2)nc1 [Compound 128] |  | 172 to 174 °C |
| O/N=C/Nc1ccc(N2CC=CC2)c(Br)c1 [Compound 12] | 16 |  |
| O/N=C/Nc1ccc(N2CC=CCC2)c(F)c1 [Compound 15] | 3.9 | 129 to 130 °C |
| Cl.O/N=C/Nc1ccc(N2CCN(C3CCCCC3)CC2)c(F)c1 [Compound 106] | 105 | 207 °C (dec.) |
| Cl.O=C(CN1CCN(c2ccc(N/C=N/O)cc2Cl)CC1)N1CCOCC1 [Compound 100] | 36.3 | 110 to 114 °C |
| O/N=C/Nc1ccc(N2CC=CCC2)c(Cl)c1 [Compound 16] | 2.2 | 135 to 137.5 °C |
| Cl.O/N=C/Nc1ccc(N2CCN(C3CCCCC3)CC2)nc1 [Compound 123] | 90.6 | 224 to 226 °C (dec.) |
| CCOC(=O)C1CCN(c2ccc(N/C=N/O)cc2Cl)CC1 [Compound 134] | 4 | 135 to 138 °C (dec.) |

The remaining molecules from weak to strong by IC50 [1], led by results:

| IC50 [1] [nM] | melting point | Structure (SMILES) |
| --- | --- | --- |
| 1530 | 229 to 231 °C (dec.) | Cl.O/N=C/Nc1ccc(N2CCN(CCN3CCCC3)CC2)c(C(F)(F)F)c1 [Compound 96] |
| 962 | 188 to 190 °C (dec.) | CN(C)CCN1CCN(c2ccc(N/C=N/O)cc2)CC1.Cl [Compound 86] |
| 758 | 196 to 198 °C (dec.) | Cc1cc(N2CCN(CCN3CCCC3)CC2)ccc1N/C=N/O.Cl [Compound 97] |
| 663 | 146 to 149 °C | Cc1cc(N2CC=CCC2)ccc1N/C=N/O [Compound 20] |
| 293 | 222 to 223 °C (dec.) | Cl.O/N=C/Nc1ccc(N2CCN(C3CCCCC3)CC2)c(Br)c1 [Compound 108] |
| 222 | 161 to 163 °C | Cl.O/N=C/Nc1ccc(N2CCN(CCN3CCCC3)CC2)c(Cl)c1 [Compound 94] |
| 215 |  | O/N=C/Nc1ccc(N2CCOCC2)nc1 [Compound 127, N-[2-(morpholino)pyridine-5-yl]-N′-hydroxyformamidine] |
| 135 | 205 °C (dec.) | Cl.O/N=C/Nc1ccc(N2CCN(CCN3CCCC3)CC2)c(F)c1 [Compound 93] |
| 75.8 | 163 to 165 °C | O/N=C/Nc1ccc(N2CCN(CCN3CCCC3)CC2)c(Br)c1 [Compound 95] |
| 71.9 | 170 °C (dec.) | Cl.OCCN1CCN(c2ccc(N/C=N/O)cc2)CC1 [Compound 79] |
| 69 | 167 to 169 °C (dec.) | Cl.O=C(CN1CCN(c2ccc(N/C=N/O)cc2)CC1)N1CCOCC1 [Compound 98] |
| 46.9 | 163 to 164 °C (dec.) | CC1CN(c2ccc(N/C=N/O)cc2Cl)CC(C)O1 (stereo not drawn) [Compound 9] |
| 46.1 | 189 to 190 °C (dec.) | COc1cc(N2CCOCC2)ccc1N/C=N/O [Compound 130] |
| 45.4 | 180 to 182 °C (dec.) | Cl.OCCN1CCN(c2ccc(N/C=N/O)cc2F)CC1 [Compound 80] |
| 44 | 190 to 192 °C (dec.) | OCCN1CCN(c2ccc(N/C=N/O)cc2Br)CC1 [Compound 82] |
| 41.9 |  | O/N=C/Nc1ccc(N2CCN(C3CCCCC3)CC2)c(Cl)c1 [Compound 107] |

| IC50 [1] [nM] | melting point | Structure (SMILES) |
| --- | --- | --- |
| 37.3 | 151 to 153 °C | OCCC1CCN(c2ccc(N/C=N/O)cn2)CC1 [Compound 132] |
| 34.2 | 172 to 176 °C | OCCC1CCN(c2ccc(N/C=N/O)cc2F)CC1 [Compound 55] |
| 33 | 154 to 156 °C | Cc1cc(N2CCCC3CCCCC32)ccc1N/C=N/O (stereo not drawn) [Compound 46] |
| 31.2 | 152 to 154 °C | Cc1cc(N2CCC(CCO)CC2)ccc1N/C=N/O [Compound 58] |
| 25.2 | 127 to 128.5 °C | O/N=C/Nc1ccc(N2CCCCCC2)c(C(F)(F)F)c1 [Compound 26] |
| 23.3 | 200 to 202 °C (dec.) | Cl.OCCN1CCN(c2ccc(N/C=N/O)cc2Cl)CC1 [Compound 81] |
| 21.4 | 75 to 77 °C | O=C(CN1CCN(c2ccc(N/C=N/O)cc2C(F)(F)F)CC1)N1CCOCC1 [Compound 103] |
| 20.8 |  | O=C(CN1CCN(c2ccc(N/C=N/O)cc2Br)CC1)N1CCOCC1 [Compound 101] |
| 14.8 |  | O/N=C/Nc1ccc(N2CCN(C3CCCCC3)CC2)cc1 [Compound 105] |
| 12.5 | 118 to 121 °C | O/N=C/Nc1ccc(N2CC=CC2)c(Cl)c1 [Compound 11] |
| 7 | 165 to 167 °C | O/N=C/Nc1ccc(N2CCC3(CC2)OCCO3)c(F)c1 [Compound 34] |
| 5.7 | 137 to 139 °C | O/N=C/Nc1ccc(N2CCCCCCC2)c(F)c1 [Compound 28] |
| 4.3 | 147 to 150 °C | Cc1cc(N2CCC3(CC2)OCCO3)ccc1N/C=N/O [Compound 39] |
| 4.2 | 103.5 to 105 °C | O/N=C/Nc1ccc(N2CCCCCC2)c(Br)c1 [Compound 24] |
| 3.2 | 141 to 142 °C (dec.) | O/N=C/Nc1ccc(N2CCSCC2)c(F)c1 [Compound 2] |
| 2.3 | 149 to 151 °C | O/N=C/Nc1ccc(N2CCSCC2)c(Br)c1 [Compound 4] |
